The compounds below were run against T1, wildtype HIV-1 protease (Human immunodeficiency virus type 1 group M subtype B, UniProt P04585) (assay: Assay for inhibition of microbial expressed HIV protease (Pepcleav)). Settings: wild type HIV-1 protease 20 pM, peptide substrate 400 micromolar, pH 5.5; mean of at least two independent experiments.
T1 construct: preincubated with the HIV-1 protease (wild type) enzyme in assay buffer; made in house; host or cells: Escherichia coli
Assay type: biochemical
In short: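 E. coli-expressed enzyme preincubated with inhibitor 30 min at room temperature in 50 mM sodium acetate pH 5.5, 100 mM NaCl, 0.1% BSA, then 400 micromolar peptide substrate added with 20 picomolar protease (final), 1 h at 30° C. Product quantified by LC-MS/MS peak area after formic acid/indinavir quench.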

Structure (SMILES) | IC50
COC(=O)N[C@H](C(=O)Nc1ccccc1CC[C@@H]1CNC[C@@H](CSc2ccc(Cl)cc2)O1)[C@@H](c1ccccc1)c1cccnc1 [Example 66, (βS)—N-(2-{2-[(2R,6S)-6-{[(4-chlorophenyl)sulfanyl]methyl}morpholin-2-yl]ethyl}phenyl)-Nα-(methoxycarbonyl)-β-pyridin-3-yl-L-phenylalaninamide] | 0.2 nM
COC(=O)N[C@H](C(=O)Nc1ccccc1CC[C@@H]1CNC[C@@H](COc2ccc(S(N)(=O)=O)cc2)O1)C(c1ccccc1)c1ccccc1 [Example 55, N-α-(methoxycarbonyl)-β-phenyl-N-[2-(2-{(2R,6S)-6-[(4-sulfamoylphenoxy)methyl]morpholin-2-yl}ethyl)phenyl]-L-phenylalaninamide] | 12 nM
COC(=O)N[C@H](C(=O)Nc1ccccc1CC[C@@H]1CNC[C@@H](COc2ccc(C#N)cc2C)O1)C(c1ccccc1)c1ccccc1 [Example 29, methyl N-[(1S)-1-benzhydryl-2-[[2-[2-[(2R,6S)-6-[(4-cyano-2-methyl-phenoxy)methyl]morpholin-2-yl]ethyl]phenyl]amino]-2-oxo-ethyl]carbamate] | 17 nM
COC(=O)N[C@H](C(=O)Nc1ccccc1CC[C@@H]1CNC[C@@H](CSc2ccc(C#N)cc2)O1)C(c1ccccc1)c1ccccc1 [Example 22, methyl N-[(1S)-1-benzhydryl-2-[[2-[2-[(2R,6S)-6-[(4-cyanophenyl)sulfanylmethyl]morpholin-2-yl]ethyl]phenyl]amino]-2-oxo-ethyl]carbamate] | 1.1 nM
COC(=O)N[C@H](C(=O)Nc1ccccc1CC[C@@H]1CNC[C@@H](COc2ccc(-n3cncn3)cc2)O1)C(c1ccccc1)c1ccccc1 [Example 15, methyl N-[(1S)-1-benzhydryl-2-oxo-2-[[2-[2-[(2R,6S)-6-[[4-(1,2,4-triazol-1-yl)phenoxy]methyl]morpholin-2-yl]ethyl]phenyl]amino]ethyl] carbamate] | 12 nM
COC(=O)N[C@H](C(=O)Nc1ccccc1CC[C@@H]1CNC[C@@H](COc2ccc(S(C)(=O)=O)cc2C)O1)C(c1ccccc1)c1ccccc1 [Example 28, methyl N-[(1S)-1-benzhydryl-2-[[2-[2-[(2R,6S)-6-[(2-methyl-4-methylsulfonyl-phenoxy)methyl]morpholin-2-yl]ethyl]phenyl]amino]-2-oxo-ethyl]carbamate] | 18 nM
COC(=O)N[C@H](C(=O)NCCCCC1CNC[C@@H](CS(=O)(=O)c2ccc(N)cc2)O1)C(c1ccccc1)c1ccccc1 (stereo partly drawn) [Example 1, Methyl N-[(1S)-1-[4-[(6S)-6-[(4-aminophenyl)sulfonylmethyl]morpholin-2-yl]butylcarbamoyl]-2,2-diphenyl-ethyl]carbamate] | 450 nM
COC(=O)N[C@H](C(=O)Nc1cc(F)cnc1CC[C@@H]1CNC[C@@H](COc2ccc(C#N)cc2)O1)C(c1ccccc1)c1ccccc1 [Example 78, N-[2-(2-{(2R,6S)-6-[(4-cyanophenoxy)methyl]morpholin-2-yl}ethyl)-5-fluoropyridin-3-yl]-Nα-(methoxycarbonyl)-β-phenyl-L-phenylalaninamide] | 150 nM
N[C@H](C(=O)Nc1cncc(F)c1CC[C@@H]1CNC[C@@H](CO)O1)C(c1ccc(F)cc1)c1ccc(F)cc1 [Example 120, 4-fluoro-N-(5-fluoro-4-{2-[(2R,6S)-6-(hydroxymethyl)morpholin-2-yl]ethyl}pyridin-3-yl)-β-(4-fluorophenyl)-L-phenylalaninamide] | 380 nM
COC(=O)N[C@H](C(=O)Nc1ccccc1CC[C@@H]1CNC[C@@H](COc2ccc(Br)cc2N)O1)C(c1ccccc1)c1ccccc1 [Example 13, methyl N-[(1S)-1-[[2-[2-[(2R,6S)-6-[(2-amino-4-bromo-phenoxy)methyl]morpholin-2-yl]ethyl]phenyl]carbamoyl]-2,2-diphenyl-ethyl]carbamate] | 21 nM
COC(=O)N[C@H](C(=O)Nc1ccccc1CC[C@@H]1CNC[C@@H](COc2ccc(-n3ccnc3)cc2)O1)C(c1ccccc1)c1ccccc1 [Example 14, methyl N-[(1S)-1-benzhydryl-2-[[2-[2-[(2R,6S)-6-[(4-imidazol-1-ylphenoxy)methyl]morpholin-2-yl]ethyl]phenyl]amino]-2-oxo-ethyl]carbamate] | 32 nM
COC(=O)N[C@H](C(=O)NCCCC1CNC[C@@H](CCc2ccc(Cl)cc2)O1)C(c1ccccc1)c1ccccc1 (stereo partly drawn) [Example 107, N-(3-{(6R)-6-[2-(4-chlorophenyl)ethyl]morpholin-2-yl}propyl)-Nα-(methoxycarbonyl)-β-phenyl-L-phenylalaninamide] | 1000 nM
COC(=O)N[C@H](C(=O)Nc1ccccc1CC[C@@H]1CNC[C@@H](CSc2nnc(Cn3nccc3C)o2)O1)C(c1ccccc1)c1ccccc1 [Example 33, methyl N-[(1S)-1-benzhydryl-2-[[2-[2-[(2R,6S)-6-[[5-[(5-methylpyrazol-1-yl)methyl]-1,3,4-oxadiazol-2-yl]sulfanylmethyl]morpholin-2-yl]ethyl]phenyl]amino]-2-oxo-ethyl]carbamate] | 0.67 nM
COC(=O)N[C@H](C(=O)Nc1ccccc1CC[C@@H]1CNC[C@@H](COc2cccc3cn[nH]c23)O1)C(c1ccccc1)c1ccccc1 [Example 41, N-[2-(2-{(2R,6S)-6-[(1H-indazol-7-yloxy)methyl]morpholin-2-yl}ethyl)phenyl]-Na-(methoxycarbonyl)-b-phenyl-L-phenylalaninamide] | 26 nM
COC(=O)N[C@H](C(=O)Nc1ccccc1CC[C@@H]1CNC[C@@H](CSc2ccc(Cl)cc2)O1)[C@@H](c1ccccc1)c1c[nH]c2ncccc12 [Example 67, (βS)-N-(2-{2-[(2R,6S)-6-{[(4-chlorophenyl)sulfanyl]methyl}morpholin-2-yl]ethyl}phenyl)-Nα-(methoxycarbonyl)-β-1H-pyrrolo[2,3-b]pyridin-3-yl-L-phenylalaninamide] | 0.11 nM
COC(=O)N[C@H](C(=O)Nc1ccccc1CC[C@@H]1CNC[C@@H](COc2cccc3nn[nH]c23)O1)C(c1ccccc1)c1ccccc1 [Example 40, N-[2-(2-{(2R,6S)-6-[(1H-benzotriazol-7-yloxy)methyl]morpholin-2-yl}ethyl)phenyl]-Na-(methoxycarbonyl)-b-phenyl-L-phenylalaninamide] | 68 nM
COC(=O)N[C@H](C(=O)Nc1ccccc1CC[C@@H]1CNC[C@@H](/C=C/c2ccc(Cl)cc2)O1)C(c1ccccc1)c1ccccc1 [Example 60, N-[2-(2-{(2R,6R)-6-[(E)-2-(4-chlorophenyl)ethenyl]morpholin-2-yl}ethyl)phenyl]-Nα-(methoxycarbonyl)-β-phenyl-L-phenylalaniamide] | 19 nM
COC(=O)N[C@H](C(=O)Nc1ccccc1CC[C@@H]1CNC[C@@H](CSc2ccc(Cl)cc2C)O1)C(c1ccccc1)c1ccccc1 [Example 26, methyl N-[(1S)-1-benzhydryl-2-[[2-[2-[(2R,6S)-6-[(4-chloro-2-methyl-phenyl)sulfanylmethyl]morpholin-2-yl]ethyl]phenyl]amino]-2-oxo-ethyl]carbamate] | 1.3 nM
COC(=O)N[C@H](C(=O)Nc1ccccc1CC[C@@H]1CNC[C@@H](CCOc2ccc(C#N)cc2)O1)C(c1ccccc1)c1ccccc1 [Example 64, N-[2-(2-{(2R,6R)-6-[2-(4-cyanophenoxy)ethyl]morpholin-2-yl}ethyl)phenyl]-Nα-(methoxycarbonyl)-β-phenyl-L-phenylalaninamide] | 28 nM
